In test [1] the test system is SOD1(A4V) motor neurons. The experiment in a line: Multiple electrode array. It is filed as cell-based, human. Conditions: for SOD1(A4V) motor neuron excitability: DRD2/3 agonists, MEA (Figure 4C).
Test [2] concerns SOD1(A4V) ALS motor neurons. It is filed as cell-based, human.
Test [3] has as its system human motor neurons carrying SOD1, C9ORF72, and FUS mutations. Conditions: ref Wainger et al., 2014; cited from earlier work.
For test [4], the system named is differentiated human ALS motor neurons. The experiment in a line: Fura-2 calcium response imaging. It is filed as cell-based. Conditions: fura-2 imaging.
Test [5] deals with SOD1(A4V) motor neurons. Kind of test: Patch clamp current-clamp recording of spontaneous firing. The format is cell-based, human. (In general: In patch-clamp work, channel activity is measured electrically.)
A further test deals with DRD2. Conditions: ref McCall et al., 2005; cited from earlier work.
Another test deals with DRD3. Conditions: cited from earlier work.
The next test concerns patients with ALS. Conditions: small-scale clinical trial; ref Nagata et al., 2016; cited from earlier work.
For test [6], the system named is lower motor neuron hyperexcitability. Conditions: two clinical trials; ref Kovalchuk et al., 2018; Wainger et al., 2021; cited from earlier work.
Setting [7] is: calcium wave count normalized to the DMSO control (100.00).
The mark [8] stands for this setting: activity normalized to the DMSO control (100.00).

pKi: −log10 of the molar value. Where two headings read alike, the source gives them in different places.

Usually pKi stands for the negative decadic logarithm of the Ki, by convention in mol/L.

On to `COc1ccc(Cl)cc1[C@]1(F)C(=O)Nc2cc(C(F)(F)F)ccc21` [Maxipost (BMS-204352)], for which the “MEA (%) spontaneous motor neuron activity” value in the test on SOD1(A4V) motor neurons [1] is 22.32 ± 1.1%. The “GCaMP6 (%) spontaneous motor neuron activity” value in test [2] (setting [7]) is 36.67 ± 39.8%.
For the molecule `CCOC(=O)Nc1ccc(NCc2ccc(F)cc2)nc1N` [flupirtine], the “firing of human motor neurons” value in [3] is “block firing”.
On to `O=C1NC(=O)C(c2ccccc2)(c2ccccc2)N1` [Phenytoin], for which, in the test with SOD1(A4V) motor neurons [1] (setting [8]), the “MEA (%) spontaneous motor neuron activity” value is recorded as 103.78 ± 41.1%. Further, in [2] (setting [7]), the “GCaMP6 (%) spontaneous motor neuron activity” value amounted to 116.67 ± 56.5%.
For `CCn1c(=O)[nH]c2ccccc21` [1-Ebio (SB-423901)], in the test on SOD1(A4V) motor neurons [1], the “MEA (%) spontaneous motor neuron activity” value is 122.81 ± 27.8%. For the same molecule, the “GCaMP6 (%) spontaneous motor neuron activity” value in test [2] (setting [7]) was 103.33 ± 21.7%.
As for `O=C(Nc1ccc(Cl)nc1)c1ccc(F)c(F)c1` [ICA-27243], the “MEA (%) spontaneous motor neuron activity” value in the test on SOD1(A4V) motor neurons [1] (setting [8]) is 0.20 ± 0.1%. Moreover, the “GCaMP6 (%) spontaneous motor neuron activity” value in test [2] (setting [7]) is given as 0.00 ± 0.0%.
With `Cc1o[nH]c(=O)c1C[C@H](N)C(=O)O` [AMPA], in test [4], the calcium influx entry was “elicits a large calcium influx”.
Regarding `CN[C@@H]1Cc2cccc3[nH]c(=O)n(c23)C1` [sumanirole], the membrane potential change entry in the test with SOD1(A4V) motor neurons [5] (patch clamp, accompanying the decrease in firing) is “slight hyperpolarization”. Also, the firing frequency result in the test with SOD1(A4V) motor neurons [5] (patch clamp, sumanirole 10 μM perfusion, control neurons) is listed as “decrease in firing frequency”. For the same molecule, the “reduced excitability in DRD2 knockdown motor neurons” value with SOD1(A4V) motor neurons [5] (shRNA-mediated DRD2 knockdown, sumanirole 10 μM) is recorded as “insensitive”. In the test with SOD1(A4V) motor neurons [1], the “SOD1(A4V) motor neuron excitability” value is on record as “decreased SOD1(A4V) motor neuron excitability”. Moreover, the results for the pKi on DRD2 and at DRD3 were 8.70 and 5.71, respectively.
Regarding `O=C1Nc2c(ccc(Cl)c2Cl)C1=NO` [NS309], the “MEA (%) spontaneous motor neuron activity” value in the test on SOD1(A4V) motor neurons [1] is on record as 86.56 ± 14.4%. Moreover, in test [2] (setting [7]), the “GCaMP6 (%) spontaneous motor neuron activity” value is 110.00 ± 38.4%.
Take `COCC(=O)O[C@]1(CCN(C)CCCc2nc3ccccc3[nH]2)CCc2cc(F)ccc2[C@@H]1C(C)C` [Mibefradil]: the “MEA (%) spontaneous motor neuron activity” value in the test with SOD1(A4V) motor neurons [1] worked out at 0.02± 0.0%. The “GCaMP6 (%) spontaneous motor neuron activity” value in test [2] (setting [7]) was found to be 0.00 ± 0.0%.
The matching figures for `Cc1cc(NC2CCCCC2)nc(-n2nc(C)cc2C)n1` [CyPPA (NS6277)]: 12.72 ± 5.8% and 80.00 ± 27.4%.
`CN(C)C(=O)C(CCN1CCC(O)(c2ccc(Cl)cc2)CC1)(c1ccccc1)c1ccccc1` [Loperamide]: in the test on SOD1(A4V) motor neurons [1], the “MEA (%) spontaneous motor neuron activity” value is given as 0.02 ± 0.0%. In addition, the “GCaMP6 (%) spontaneous motor neuron activity” value in test [2] was 0.00± 0.0%.
Turning to `Nc1nc2c(ccc3ccccc32)s1` [SKA 31], the “MEA (%) spontaneous motor neuron activity” value with SOD1(A4V) motor neurons [1] was 106.67 ± 44.4%. Besides, the “GCaMP6 (%) spontaneous motor neuron activity” value in [2] (setting [7]) stood at 123.33 ± 60.8%.
In the case of `CC(C)C[C@H]1C(=O)N2CCC[C@H]2[C@]2(O)O[C@](NC(=O)[C@@H]3C=C4c5cccc6[nH]c(Br)c(c56)C[C@H]4N(C)C3)(C(C)C)C(=O)N12` [bromocriptine], the “motor function in patients with ALS” value in the test on patients with ALS is “sustained motor function”. Moreover, in the test on SOD1(A4V) motor neurons [1], the “SOD1(A4V) motor neuron excitability” value is “decreased SOD1(A4V) motor neuron excitability”.
Consider `O=C(Nc1cnc(Cl)nc1)c1ccc(F)c(F)c1` [ICA 069673], for which the “MEA (%) spontaneous motor neuron activity” value with SOD1(A4V) motor neurons [1] is listed as 0.07 ± 0.0%. Moreover, the “GCaMP6 (%) spontaneous motor neuron activity” value in test [2] (setting [7]) was 13.33 ± 13.9%.
Taken in the same sequence, the figures for `Cc1cc(C)c(NC(=O)C2CC3CCC2C3)c(C)c1` (stereo not shown) [ML213] were 0.38 ± 0.4% and 0.00 ± 0.0%.
Turning to `CCOC(=O)Nc1ccc(NCc2ccc(F)cc2)cc1N` [retigabine], in test [3], the “firing of human motor neurons” value is on record as “block firing”. Moreover, the “lower motor neuron hyperexcitability in patients with ALS” value in test [6] was “decreased lower motor neuron hyperexcitability”.

(Values after PMC8209673 (Cell reports, 2021).)
